Test results from the C3SDB collision cross section collection.
Where “and” joins values, the source holds several entries; their conditions need not be identical. Identical values can stand only once.

Key:
[1] = instrument: DT, stepped-field
[2] = instrument: DT, single field
[3] = instrument: DT, single field, calibrated with Agilent tune mix (Agilent)
[4] = instrument: TW, calibrated with phosphatidylcholines (ESI+) and phosphatidylethanolamines (ESI-)
[5] = [M+Na]+; instrument: DT; stepped-field

## CCCCCC/C=C\CCCCCCCC(=O)OC[C@@H](O)COP(=O)(O)O [LPA(16:1)]
[1]; [M-H]-
  collision cross section (N2): 191.1 Å²

## CCCCCCCCCCCCCCCCCC(=O)O[C@H](CO)COP(=O)(O)O [LPA(18:0)]
[1]; [M-H]-
  collision cross section (N2): 206.2 Å²

## CCCCCCCCCCCCCCCCCC(=O)OC[C@@H](O)COP(=O)(O)OC[C@@H](O)CO [LPG(18:0)]
[1]; [M-H]-
  collision cross section (N2): 221.9 Å²

## CCCCCCCC/C=C\CCCCCCCC(=O)OC[C@@H](O)COP(=O)(O)O[C@H]1C(O)C(O)C(O)[C@@H](O)C1O (some centres not stated) [LPI(18:1)]
[1]; [M-H]-
  collision cross section (N2): 233.4 Å²

## CCCCC/C=C\C/C=C\CCCCCCCCCC(=O)O[C@H](COC(=O)CCCCCCCCCCC)COP(=O)(O)O [PA(16:1/16:1)]
[1]; [M-H]-
  collision cross section (N2): 250 Å²

## CCCCC/C=C\C/C=C\CCCCCCCCCCCC(=O)O[C@H](COC(=O)CCCCCCCCCCC)COP(=O)(O)O [PA(16:1/18:1)]
[1]; [M-H]-
  collision cross section (N2): 257 Å²

## CCCCCCC/C=C\CCCCCCCC(=O)O[C@H](COC(=O)CCCCCCCCCCCC)COP(=O)([O-])OCC[N+](C)(C)C [PC(14:0/16:1)]
[1]; [M+H]+
  collision cross section (N2): 283.6 Å²

## CCCCCCCCCCCCCCCCCCCC(=O)O[C@H](COC(=O)CCCCCCCCCCC)COP(=O)([O-])OCC[N+](C)(C)C [PC(32:0)]
[2]; [M+H]+
  collision cross section (N2): 282.65 Å² and 284.23 Å²
[3]; [M+H]+
  collision cross section (N2): 283.4 Å²
[4]; [M+H]+
  collision cross section (N2): 281 Å²

## CC/C=C\C/C=C\C/C=C\CCCCCCCC(=O)OC[C@H](COP(=O)([O-])OCC[N+](C)(C)C)OC(=O)CCCCCC/C=C\C/C=C\C/C=C\CCCCC [PC(38:6)]
[3]; [M+HCOO]-
  collision cross section (N2): 291.9 Å²
[3]; [M+Na]+
  collision cross section (N2): 293.3 Å²
[1]; [M+H]+
  collision cross section (N2): 299.9 Å²
[4]; [M+CH3COO]-
  collision cross section (N2): 294 Å²
[4]; [M+H]+
  collision cross section (N2): 286.8 Å²

## CCCCC/C=C\C/C=C\C/C=C\CCCCC(=O)O[C@H](COCCCCCCCCCCCCCCCC)COP(=O)([O-])OCC[N+](C)(C)C [PC(o34:3)]
[1]; [M+H]+
  collision cross section (N2): 294 Å²

## CCCCC/C=C\C/C=C\C/C=C\C/C=C\CCCC(=O)O[C@H](COCCCCCCCCCCCCCCCC)COP(=O)([O-])OCC[N+](C)(C)C [PC(o36:4)]
[1]; [M+H]+
  collision cross section (N2): 297.2 Å²

## CCCC/C=C\CCCCCCCCCC(=O)OC[C@H](COP(=O)(O)OCCN)OC(=O)CCCCCCCCC/C=C\CCCC [PE(16:1/16:1)]
[1]; [M+H]+
  collision cross section (N2): 276.6 Å²

## CCCC/C=C\CCCCCCCCCCCC(=O)O[C@H](COC(=O)CCCCCCCCCCCCCCCCCCC)COP(=O)(O)OCCN [PE(38:1)]
[1]; [M+H]+
  collision cross section (N2): 299.8 Å²

## CCCCCC/C=C\CCCCCCCC(=O)OC[C@H](COP(=O)(O)OCCN)OC(=O)CCCCCCCCC/C=C\CCCCCCCCCC [PE(38:2)]
[3]; [M+H]+
  collision cross section (N2): 285.1 Å²
[1]; [M+H]+
  collision cross section (N2): 298.6 Å²
[4]; [M-H]-
  collision cross section (N2): 274.1 Å²

## CCCCC/C=C\C/C=C\C/C=C\CCCCC(=O)O[C@H](COCCCCCCCCCCCCCCCCCC)COP(=O)(O)OCCN [PE(o36:3)]
[5]
  collision cross section (N2): 285.4 Å²
[1]; [M+H]+
  collision cross section (N2): 290.1 Å²
[1]; [M-H]-
  collision cross section (N2): 273.1 Å²

## CCCCC/C=C\C/C=C\C/C=C\C/C=C\CCCC(=O)O[C@H](COCCCCCCCCCCCCCCCC)COP(=O)(O)OCCN [PE(o36:4)]
[5]
  collision cross section (N2): 281.6 Å²
[1]; [M-H]-
  collision cross section (N2): 270 Å²

## CCCCC/C=C\C/C=C\C/C=C\C/C=C\C/C=C\CCC(=O)O[C@H](COCCCCCCCCCCCCCCCC)COP(=O)(O)OCCN [PE(o38:5)]
[5]
  collision cross section (N2): 287.7 Å²
[1]; [M-H]-
  collision cross section (N2): 277.8 Å²

## CCCCC/C=C\C/C=C\CCCCCCCCCCCC(=O)O[C@H](COC(=O)CCCCCCCCCCC)COP(=O)(O)OC[C@@H](O)CO [PG(16:1/18:1)]
[1]; [M-H]-
  collision cross section (N2): 274 Å² and 273.8 Å² and 274.3 Å²

## CCCCCCCCCCCCCCCCC(=O)O[C@H](COC(=O)CCCCCCCCCCCCCC)COP(=O)(O)OC[C@@H](O)CO [PG(32:0)]
[3]; [M-H]-
  collision cross section (N2): 265.1 Å²
[1]; [M-H]-
  collision cross section (N2): 270.3 Å²
[4]; [M+Na]+
  collision cross section (N2): 277.3 Å²
[4]; [M-H]-
  collision cross section (N2): 263.5 Å²

## CCCC/C=C\CCCCCCCC(=O)OC[C@H](COP(=O)(O)OC[C@@H](O)CO)OC(=O)CCCCCCCCCCC/C=C\C/C=C\CCCCC [PG(36:3)]
[3]; [M+H]+
  collision cross section (N2): 285.4 Å²
[3]; [M+NH4]+
  collision cross section (N2): 286.5 Å²
[3]; [M-H]-
  collision cross section (N2): 272.8 Å²
[1]; [M-H]-
  collision cross section (N2): 280 Å²
[4]; [M+Na]+
  collision cross section (N2): 282 Å²
[4]; [M-H]-
  collision cross section (N2): 272.2 Å²

## CCCCC/C=C\C/C=C\CCCCCCCCCCCC(=O)O[C@H](COC(=O)CCCCCCCCCCCCCC)COP(=O)(O)OC[C@@H](O)CO [PG(37:2)]
[1]; [M-H]-
  collision cross section (N2): 285.5 Å²

## CCCCCCCCCC/C=C\CCCCCCCCCC(=O)O[C@H](COC(=O)CCCCCCCCCCCCC)COP(=O)(O)O[C@H]1C(O)C(O)C(O)[C@@H](O)C1O (some centres not stated) [PI(18:0/18:1)]
[1]; [M-H]-
  collision cross section (N2): 297.5 Å² and 297.7 Å²

## CCCC/C=C\C/C=C\CCCCCCCC(=O)O[C@H](COC(=O)CCCCCCC/C=C\CCCCCCCCC)COP(=O)(O)O[C@H]1C(O)C(O)C(O)[C@@H](O)C1O (some centres not stated) [PI(36:3)]
[3]; [M+H]+
  collision cross section (N2): 296.4 Å²
[3]; [M+NH4]+
  collision cross section (N2): 297.4 Å²
[3]; [M+Na]+
  collision cross section (N2): 295.5 Å²
[1]; [M-H]-
  collision cross section (N2): 296.3 Å²
[4]; [M+Na]+
  collision cross section (N2): 291.1 Å²
[4]; [M-H]-
  collision cross section (N2): 287.2 Å²

## CCCCCCCCC/C=C\CCCCCCCC(=O)O[C@H](COC(=O)CCCCCCCCCCCC)COP(=O)(O)OC[C@H](N)C(=O)O [PS(16:0/16:1)]
[1]; [M-H]-
  collision cross section (N2): 272.6 Å²

## CCCCCCCC/C=C\CCCCCCCC(=O)O[C@H](COC(=O)CCCCCCCCCCCCCCC)COP(=O)(O)OC[C@H](N)C(=O)O [PS(16:0/18:1)]
[1]; [M-H]-
  collision cross section (N2): 278.8 Å²

## CCCC/C=C\CCCCCCCC(=O)OC[C@H](COP(=O)(O)OC[C@H](N)C(=O)O)OC(=O)CCCCCCC/C=C\CCCCCCCC [PS(16:1/16:1)]
[1]; [M-H]-
  collision cross section (N2): 270.6 Å²

## CCCCCC/C=C\CCCCCCCC(=O)OC[C@H](COP(=O)(O)OC[C@H](N)C(=O)O)OC(=O)CCCCCCCCC/C=C\CCCCCCCCCC [PS(38:2)]
[1]; [M-H]-
  collision cross section (N2): 294.3 Å²

## CCCCC/C=C\C/C=C\CCCCCCCCCCCC(=O)O[C@H](COC(=O)CCCCCCCCCCCCCCCCC)COP(=O)(O)OC[C@H](N)C(=O)O [PS(40:2)]
[1]; [M-H]-
  collision cross section (N2): 301 Å²

## CCCCC/C=C\C/C=C\CCCCCCCCCCCC(=O)O[C@H](COC(=O)CCCCCCC/C=C\CCCCCCCC)COP(=O)(O)OC[C@H](N)C(=O)O [PS(40:3)]
[3]; [M+H]+
  collision cross section (N2): 295.2 Å²
[1]; [M-H]-
  collision cross section (N2): 299 Å²

## CCCCC/C=C\C/C=C\C/C=C\CCCCC(=O)OC[C@H](COP(=O)(O)OC[C@H](N)C(=O)O)OC(=O)CCCCCCCCCCC/C=C\C/C=C\CCCCC [PS(40:5)]
[3]; [M+H]+
  collision cross section (N2): 292.1 Å²
[3]; [M+Na]+
  collision cross section (N2): 296.7 Å²
[3]; [M-H]-
  collision cross section (N2): 285.7 Å²
[1]; [M-H]-
  collision cross section (N2): 296.4 Å²
[4]; [M-H]-
  collision cross section (N2): 285.6 Å²

## CCCCCCCCCCCCC=CC[C@@H](O)[C@H](COP(=O)([O-])OCC[N+](C)(C)C)NC(=O)CCCCCCCCCCCCCCC [SM(34:1)]
[2]; [M+H]+
  collision cross section (N2): 281.13 Å²
[3]; [M+HCOO]-
  collision cross section (N2): 280.9 Å²
[3]; [M+H]+
  collision cross section (N2): 283.9 Å²
[5]
  collision cross section (N2): 285.1 Å²

## CCCCCCCCCCCCC=CC[C@@H](O)[C@H](COP(=O)([O-])OCC[N+](C)(C)C)NC(=O)CCCCCCCCCCCCCCCCC [SM(36:1)]
[2]; [M+H]+
  collision cross section (N2): 286.91 Å²
[3]; [M+HCOO]-
  collision cross section (N2): 286.4 Å²
[3]; [M+H]+
  collision cross section (N2): 289.1 Å²
[3]; [M+Na]+
  collision cross section (N2): 290 Å²
[5]
  collision cross section (N2): 292.4 Å²

## CCCCCCCCCCCCC=CC[C@@H](O)[C@H](COP(=O)([O-])OCC[N+](C)(C)C)NC(=O)CC=CCCCCCCCCCCCCCCCCCC [SM(40:2)]
[2]; [M+H]+
  collision cross section (N2): 298.58 Å²
[3]; [M+H]+
  collision cross section (N2): 298.4 Å²
[5]
  collision cross section (N2): 301.7 Å²

## CC/C=C\C/C=C\C/C=C\C/C=C\C/C=C\CCCCCC(=O)OC[C@@H](COC(=O)CCCCCCC/C=C\CCCCC)OC(=O)CCCCCCCCCCCCCCCCCC [TG(56:6)]
[2]; [M+Na]+
  collision cross section (N2): 326.57 Å² and 325 Å²
[3]; [M+NH4]+
  collision cross section (N2): 328.3 Å²

## CCCCCCCCCC/C=C\CCCCCCCCCC(=O)OC[C@@H](COC(=O)CCCCCCCCCCCC)OC(=O)CCCCCCCCC/C=C\CCCCCCCCCC [TG(57:2)]
[2]; [M+NH4]+
  collision cross section (N2): 338.57 Å² and 340.8 Å²
[3]; [M+NH4]+
  collision cross section (N2): 334.6 Å²

## CCCCC/C=C\C/C=C\CCCCCCCCCCCC(=O)OC[C@@H](COC(=O)CCCCCCCCCCCC)OC(=O)CCCCCCCCC/C=C\CCCCCCCCCC [TG(57:3)]
[2]; [M+NH4]+
  collision cross section (N2): 336.68 Å² and 339.26 Å²
[3]; [M+NH4]+
  collision cross section (N2): 332.9 Å²

## CCCCCCCCCC/C=C\CCCCCCCCCC(=O)OC[C@@H](COC(=O)CCCCCCCCCCCCC)OC(=O)CCCCCCCCC/C=C\CCCCCCCCCC [TG(58:2)]
[2]; [M+NH4]+
  collision cross section (N2): 341.17 Å² and 343.91 Å² and 338.53 Å²
[3]; [M+NH4]+
  collision cross section (N2): 337.8 Å²

## CCCCC/C=C\C/C=C\CCCCCCCCCC(=O)O[C@H](COC(=O)CCCCCCC/C=C\CCCCCCCC)COC(=O)CCCCCCCCCCC/C=C\CCCCCCCC [TG(60:4)]
[2]; [M+NH4]+
  collision cross section (N2): 342.69 Å² and 347.03 Å²
[3]; [M+NH4]+
  collision cross section (N2): 340.7 Å²
